21 compounds from ChEMBL document CHEMBL4184331 (J Med Chem, 2018) can be followed below.

As usually defined, the EC50 is the concentration that produces a half-maximal response. As usually defined, the pKa is the negative logarithm of the acid dissociation constant. Low values mean a group that gives up its proton readily, high ones a group that holds its proton tightly. The Ki is the equilibrium dissociation constant of an inhibitor or competing ligand from its target. The low end stands for a stronger hold on the target, the high end for a looser hold on the target. As usually defined, the IC50 is the midpoint of a concentration-inhibition curve. A high value points to weaker potency in that assay.

Data set [1] deals with T1, Glucocorticoid receptor (Homo sapiens, UniProt P04150).
T1 sequence (P04150 whole entry): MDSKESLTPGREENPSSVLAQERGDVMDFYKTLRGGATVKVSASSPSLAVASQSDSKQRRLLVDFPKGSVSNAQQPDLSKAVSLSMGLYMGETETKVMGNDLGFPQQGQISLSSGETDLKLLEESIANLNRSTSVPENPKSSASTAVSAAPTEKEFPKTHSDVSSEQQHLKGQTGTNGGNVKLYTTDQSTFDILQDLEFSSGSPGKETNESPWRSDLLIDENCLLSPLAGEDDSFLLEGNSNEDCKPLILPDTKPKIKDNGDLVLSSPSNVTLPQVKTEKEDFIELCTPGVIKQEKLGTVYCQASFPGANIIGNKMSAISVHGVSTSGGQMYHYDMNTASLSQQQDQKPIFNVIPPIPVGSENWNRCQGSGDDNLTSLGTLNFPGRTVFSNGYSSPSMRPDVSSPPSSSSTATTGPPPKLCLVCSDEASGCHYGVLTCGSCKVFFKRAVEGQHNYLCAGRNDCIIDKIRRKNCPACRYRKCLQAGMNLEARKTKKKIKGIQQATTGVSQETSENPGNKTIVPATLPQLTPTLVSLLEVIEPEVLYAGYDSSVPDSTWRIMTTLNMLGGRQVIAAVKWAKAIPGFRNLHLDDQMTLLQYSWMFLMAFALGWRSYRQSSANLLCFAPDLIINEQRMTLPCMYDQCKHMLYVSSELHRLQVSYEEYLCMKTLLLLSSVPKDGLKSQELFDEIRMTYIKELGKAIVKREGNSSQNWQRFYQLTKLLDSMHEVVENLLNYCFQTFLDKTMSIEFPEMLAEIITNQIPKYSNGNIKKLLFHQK
Description: Induction of nuclear translocation of human recombinant ProLabel-tagged glucocorticoid receptor expressed in CHO-K1 cells after 3 hrs by luminescence method

Data set [2] deals with T1, Glucocorticoid receptor. Briefly: biochemical.
Description: Displacement of [3H]dexamethasone from human recombinant glucocorticoid receptor expressed in insect cells after 24 hrs by scintillation proximity assay
A further data set has as its system RAW264.7. Briefly: cells. Particulars: Mus musculus.

Description for RAW264.7: Antiinflammatory activity in mouse RAW264.7 cells assessed as inhibition of LPS-induced nitric oxide release preincubated for 15 mins followed by LPS challenge measured after 18 hrs by Griess assay
Description for physchem: Dissociation constant, pKa of the compound

`C[C@]12C=CC(=O)C=C1[C@@H](F)C[C@H]1[C@@H]3C[C@H]4CN(Cc5ccccc5)C[C@@]4(C(=O)NCc4ccccc4)[C@@]3(C)C[C@H](O)[C@@]12F` had an EC50 on Glucocorticoid receptor [1] of 50 nM. Besides, in “physchem”, the pKa came out at 7.05. Besides, at Glucocorticoid receptor [2], the Ki worked out at 9.8 nM.

At Glucocorticoid receptor [1], `C[C@]12C=CC(=O)C=C1[C@@H](F)C[C@H]1[C@@H]3C[C@H]4CN(Cc5ccc(Cl)cc5)C[C@@]4(C(=O)CO)[C@@]3(C)C[C@H](O)[C@@]12F` came in with an EC50 of 1.3 nM. This compound also came in with an IC50 in the data set with RAW264.7 of 0.25 nM. Moreover, the pKa in the data set “physchem” came out at 6.72.

On to `C[C@]12C=CC(=O)C=C1[C@@H](F)C[C@H]1[C@@H]3C[C@H]4CN(c5ccccc5)C[C@@]4(C(=O)CF)[C@@]3(C)C[C@H](O)[C@@]12F`, for which the EC50 at Glucocorticoid receptor [1] was 3.2 nM. Besides, the IC50 in the data set on RAW264.7 is 1.38 nM. Also, in “physchem”, the pKa stood at 8.74. The same compound gave a Ki on Glucocorticoid receptor [2] of 0.52 nM.

`COC(=O)[C@@]12CN(Cc3ccccc3)C[C@@H]1C[C@H]1[C@@H]3C[C@H](F)C4=CC(=O)C=C[C@]4(C)[C@@]3(F)[C@@H](O)C[C@@]12C` displayed an EC50 on Glucocorticoid receptor [1] of 5.7 nM. Further, the pKa in the data set “physchem” was 7.12. On Glucocorticoid receptor [2], this compound gave a Ki of 0.71 nM.

On Glucocorticoid receptor [1], `C[C@]12C=CC(=O)C=C1[C@@H](F)C[C@H]1[C@@H]3C[C@H]4CN(c5ccccc5)C[C@@]4(C(=O)CO)[C@@]3(C)C[C@H](O)[C@@]12F` gave an EC50 of 1.3 nM. Moreover, the IC50 in the data set on RAW264.7 was 0.34 nM. Also, in “physchem”, the pKa was 8.82. Also, affinity on Glucocorticoid receptor [2] was put at a Ki of 0.39 nM.

The compound `Cc1ccc(CN2C[C@@H]3C[C@H]4[C@@H]5C[C@H](F)C6=CC(=O)C=C[C@]6(C)[C@@]5(F)[C@@H](O)C[C@]4(C)[C@]3(C(=O)CO)C2)cc1` displayed a concentration for a half-maximal effect (EC50) at Glucocorticoid receptor [1] of 8.4 nM. In the data set on RAW264.7, this compound gave an IC50 of 0.16 nM. The same compound yielded a pKa in the data set “physchem” of 7.11. This compound showed an inhibition constant (Ki) on Glucocorticoid receptor [2] of 0.52 nM.

At Glucocorticoid receptor [1], `CC(=O)[C@@]12CN(Cc3cccc(Cl)c3)C[C@@H]1C[C@H]1[C@@H]3C[C@H](F)C4=CC(=O)C=C[C@]4(C)[C@@]3(F)[C@@H](O)C[C@@]12C` came in with an EC50 of 7.7 nM. In the data set with RAW264.7, this compound gave an IC50 of 1.4 nM. Also, the pKa in the data set “physchem” stood at 6.9. The compound also returned a Ki on Glucocorticoid receptor [2] of 0.57 nM.

In turn, `C[C@]12C=CC(=O)C=C1[C@@H](F)C[C@H]1[C@@H]3C[C@H]4CN(c5cccc(Cl)c5)C[C@@]4(C(=O)CO)[C@@]3(C)C[C@H](O)[C@@]12F` returned an EC50 on Glucocorticoid receptor [1] of 5.8 nM. In the data set with RAW264.7, this compound gave an IC50 of 0.4 nM. The same compound yielded a pKa in “physchem” of 4.06. For the same compound, the Ki at Glucocorticoid receptor [2] is 0.52 nM.

As for `C[C@]12C=CC(=O)C=C1[C@@H](F)C[C@H]1[C@@H]3C[C@H]4CN(Cc5ccccc5)C[C@@]4(C(=O)CO)[C@@]3(C)C[C@H](O)[C@@]12F`, the response on Glucocorticoid receptor [1] was half-maximal at 1.7 nM (EC50). In the data set with RAW264.7, this compound had an IC50 of 0.15 nM. Also, the pKa in “physchem” was 6.96. The affinity at Glucocorticoid receptor [2], expressed as Ki, was 0.66 nM.

Turning to `C[C@]12C=CC(=O)C=C1[C@@H](F)C[C@H]1[C@@H]3C[C@H]4CN(CC5CC5)C[C@@]4(C(=O)CO)[C@@]3(C)C[C@H](O)[C@@]12F`, the EC50 on Glucocorticoid receptor [1] came out at 15.2 nM. In addition, the pKa in the data set “physchem” was 7.83.

The compound `C[C@]12C=CC(=O)C=C1[C@@H](F)C[C@H]1[C@@H]3C[C@H]4CN(S(=O)(=O)c5cccs5)C[C@@]4(C(=O)CO)[C@@]3(C)C[C@H](O)[C@@]12F` registered an EC50 on Glucocorticoid receptor [1] of 7.4 nM. In the data set on RAW264.7, this compound registered an IC50 of 3.68 nM. Besides, the affinity on Glucocorticoid receptor [2] corresponds to a Ki of 0.66 nM.

In turn, `C[C@]12C=CC(=O)C=C1[C@@H](F)C[C@H]1[C@@H]3C[C@H]4CN(C(=O)OCc5ccccc5)C[C@@]4(C(=O)CO)[C@@]3(C)C[C@H](O)[C@@]12F` yielded an EC50 on Glucocorticoid receptor [1] of 44.1 nM. For the same compound, affinity at Glucocorticoid receptor [2] was put at a Ki of 0.66 nM.

In turn, `C[C@]12C=CC(=O)C=C1[C@@H](F)C[C@H]1[C@@H]3C[C@H]4CN(Cc5ccc6ccccc6n5)C[C@@]4(C(=O)CO)[C@@]3(C)C[C@H](O)[C@@]12F` displayed an EC50 at Glucocorticoid receptor [1] of 31.2 nM. Also, half-maximal inhibition with RAW264.7 (IC50) required 11.9 nM. Also, the pKa in “physchem” came out at 3.42. For the same compound, the Ki at Glucocorticoid receptor [2] stood at 0.71 nM.

For the compound `C[C@]12C=CC(=O)C=C1[C@@H](F)C[C@H]1[C@@H]3C[C@H]4CN(Cc5ccccc5)C[C@@]4(C(=O)CF)[C@@]3(C)C[C@H](O)[C@@]12F`, the midpoint of the response on Glucocorticoid receptor [1], the EC50, lay at 3.4 nM. Moreover, in “physchem”, the pKa is 6.87. Moreover, at Glucocorticoid receptor [2], the Ki was determined as 0.52 nM.

On to `C[C@]12C=CC(=O)C=C1[C@@H](F)C[C@H]1[C@@H]3C[C@H]4CN(Cc5cccc(Cl)c5)C[C@@]4(C(=O)OCF)[C@@]3(C)C[C@H](O)[C@@]12F`, for which it took 20.8 nM to reach a half-maximal effect on Glucocorticoid receptor [1] (EC50). Besides, in “physchem”, the pKa turned out to be 6.58. The same compound displayed a Ki at Glucocorticoid receptor [2] of 0.57 nM.

On to `C[C@]12C=CC(=O)C=C1[C@@H](F)C[C@H]1[C@@H]3C[C@H]4CN(c5ccc(Cl)cc5)C[C@@]4(C(=O)CO)[C@@]3(C)C[C@H](O)[C@@]12F`, for which, at Glucocorticoid receptor [1], a half-maximal effect (EC50) was put at 8.5 nM. In addition, the IC50 with RAW264.7 is 0.66 nM. In addition, the pKa in “physchem” was 4.42. On Glucocorticoid receptor [2], this compound returned a Ki of 0.67 nM.

Take `CC(C)CCN1C[C@@H]2C[C@H]3[C@@H]4C[C@H](F)C5=CC(=O)C=C[C@]5(C)[C@@]4(F)[C@@H](O)C[C@]3(C)[C@]2(C(=O)CO)C1`: a half-maximal effect on Glucocorticoid receptor [1] (EC50) was put at 3.4 nM. The same compound came in with an IC50 with RAW264.7 of 0.22 nM. In the data set “physchem”, this compound returned a pKa of 7.98. Also, on Glucocorticoid receptor [2], the inhibitory constant (Ki) is 1.9 nM.

Regarding `C[C@]12C=CC(=O)C=C1[C@@H](F)C[C@H]1[C@@H]3C[C@H]4CN(C(=O)c5ccccc5)C[C@@]4(C(=O)CO)[C@@]3(C)C[C@H](O)[C@@]12F`, a half-maximal response on Glucocorticoid receptor [1] (EC50) required 248 nM.

On Glucocorticoid receptor [1], `Cc1cccc(CN2C[C@@H]3C[C@H]4[C@@H]5C[C@H](F)C6=CC(=O)C=C[C@]6(C)[C@@]5(F)[C@@H](O)C[C@]4(C)[C@]3(C(=O)CO)C2)c1` gave an EC50 of 11.3 nM. In addition, it took 0.3 nM to reach half-maximal inhibition in the data set on RAW264.7 (IC50). The compound further yielded a pKa in the data set “physchem” of 7.27. Also, the Ki on Glucocorticoid receptor [2] was found to be 0.52 nM.

At Glucocorticoid receptor [1], `CN1C[C@@H]2C[C@H]3[C@@H]4C[C@H](F)C5=CC(=O)C=C[C@]5(C)[C@@]4(F)[C@@H](O)C[C@]3(C)[C@]2(C(=O)CO)C1` came in with an EC50 of 54.9 nM. For the same compound, in the data set “physchem”, the pKa is 7.91.

Take `C[C@]12C=CC(=O)C=C1[C@@H](F)C[C@H]1[C@@H]3C[C@H]4CN(Cc5cccnc5)C[C@@]4(C(=O)CO)[C@@]3(C)C[C@H](O)[C@@]12F`: the EC50 on Glucocorticoid receptor [1] is 63.9 nM. In the data set “physchem”, this compound returned a pKa of 4.11.
